Laboratory results reported in patent publication US10202412B2, “β-D-2′-deoxy-2′-substituted-4′-substituted-2-substituted-N6-substituted-6-aminopurinenucleotides for the treatment of paramyxovirus and orthomyxovirus infections” (Atea Pharmaceuticals, Inc., priority 2016, dated 2019).

How the values were obtained:
[1] = system: Respiratory syncytial virus (RSV) type A, strain A2 (ATCC VR-1540); assay: dNHBE assay: RSV virus yield reduction (EC90); format: cell-based; details: human respiratory syncytial virus, RSV (A2) in dNHBE cells; concentration reducing virus yield by 1 log10; mean of at least two experiments
Description: (§1) Differentiated normal human bronchial epithelial (dNHBE) cells were grown on 6 mm mesh disks in transwell inserts to approximately 1.2×10^6 cells/disk and disks were transferred to individual wells of a 6-well plate. 1 mL of proprietary culture medium was added to the basolateral side of the cells and the apical side was exposed to a humidified 95% air/5% CO2 environment. Cells were cultured at 37° C. for one day and then the mucin layer was removed from the apical side of the cells by repeated (3×) washing with 500 μL 30 mM HEPES buffered saline solution and culture medium on the basal side was replenished.
Respiratory syncytial virus (RSV) type A, strain A2 (ATCC VR-1540), previously passaged in MA-104 cells to make working stock cultures, was diluted 1/10 in medium before infection, using a multiplicity of infection (MOI) of ≤0.03 CCID50 per cell.
(§2) Various concentrations of test compounds in medium were applied in duplicate to the apical (140 μL) and basal sides (1 mL) for a 1 hour pre-treatment, followed by addition of 140 μL of virus inoculum to each cell insert on the apical side. The viral inoculum and treatments were removed after 2 hours. Control cells were treated with placebo (culture medium only). Following infection, the apical medium was removed and the basal side was replaced with fresh compound in medium. The cells were maintained at the air-liquid interface, and cell culture medium on the basal side was replaced daily with fresh medium containing test compound. After 4 days, the liquid was removed from the basal side and discarded and virus released into the apical compartment was harvested by the addition of 500 μL of culture medium. The medium was thoroughly mixed, then removed, diluted 1:1 with 40% sucrose and stored at ≤−80° C.
To determine the virus titer from each treated cell culture, MA-104 cells were seeded in 96-well plates and grown overnight (37° C.) to confluence. Samples containing virus were diluted in 10-fold increments in infection medium and 200 μL of each dilution transferred into respective wells of a 96-well microtiter plate. Four microwells were used for each dilution to determine 50% viral endpoints. After 7 days of incubation, each well was scored positive for virus if any cytopathic effect was observed as compared with the uninfected control. The virus dose that was able to infect 50% of the cell cultures (CCID50 per 0.1 mL) was calculated by the Reed-Muench method. This was repeated in duplicate for each test sample, so that values reported are an average of 2 independent CCID5o determinations. Untreated, uninfected cell controls were tested as negative controls. Statistical differences in the titers were evaluated with a one-way analysis of variance (ANOVA) followed by Dunnett's multiple comparisons test compared with the untreated virus controls.
(§3) Concentrations of test compounds that reduced virus yield by 1 log10 (90% effective concentration; EC90) were calculated by regression analysis. The reported EC90 value is the mean of at least two experiments. Potential toxicity of the test compounds was evaluated microscopically.

[2] = system: Differentiated normal human bronchial epithelial (dNHBE) cells; assay: dNHBE assay: toxicity evaluated microscopically; format: cell-based; design: unit not given here
Description: as §1, §2, §3

SMILES	EC90 [1]	Visual toxicity [2]
CC(C)OC(=O)[C@H](C)N[P@](=O)(OC[C@@]1(C)O[C@@H](n2cnc3c(N(C)C)nc(N)nc32)[C@H](F)[C@@H]1O)Oc1ccccc1 [AA]	3.5 µM	>167
COc1nc(N(C)C)c2ncn([C@@H]3O[C@](C)(CO[P@@](=O)(N[C@@H](C)C(=O)OC(C)C)Oc4ccccc4)[C@@H](O)[C@H]3F)c2n1 [AF, (S)-Isopropyl 2-(((S)-(((2R,3R,4R,5R)-5-(6-(dimethylamino)-2-methoxy-9H-purin-9-yl)-4-fluoro-3-hydroxy-2-methyltetrahydrofuran-2-yl)methoxy)(phenoxy)phosphoryl)amino) propanoate]	0.18 µM	>16
CC(C)OC(=O)[C@H](C)N[P@](=O)(OC[C@@]1(CCl)O[C@@H](n2cnc3c(N(C)C)nc(N)nc32)[C@H](F)[C@@H]1O)Oc1ccccc1 [AG, (S)-Isopropyl 2-(((S)-(((2R,3R,4R,5R)-5-(2-amino-6-(dimethylamino)-9H-purin-9-yl)-2-(chloromethyl)-4-fluoro-3-hydroxytetrahydrofuran-2-yl)methoxy)(phenoxy)phosphoryl)amino) propanoate]	< 0.16 µM	>15
CNc1nc(F)nc2c1ncn2[C@@H]1O[C@](CCl)(CO[P@@](=O)(N[C@@H](C)C(=O)OC(C)C)Oc2ccccc2)[C@@H](O)[C@H]1F [AJ, (S)-Isopropyl 2-(((S)-(((2R,3R,4R,5R)-5-(6-(methylamino)-2-fluoro-9H-purin-9-yl)-2-(chloromethyl)-4-fluoro-3-hydroxytetrahydrofuran-2-yl)methoxy)(phenoxy)phosphoryl)amino) propanoate]	> 1.6 µM	>1.6
CNc1nc(N)nc2c1ncn2[C@@H]1O[C@](C)(CO[P@@](=O)(N[C@@H](C)C(=O)OC(C)C)Oc2ccccc2)[C@@H](O)[C@@H]1F [AK, (S)-Isopropyl 2-(((S)-(((2R,3R,4S,5R)-5-(2-amino-6-(methylamino)-9H-purin-9-yl)-4-fluoro-3-hydroxy-2-methyltetrahydrofuran-2-yl)methoxy)(phenoxy)phosphoryl)amino) propanoate]	1.1 µM	>1.7
CNc1nc(N)nc2c1ncn2[C@@H]1O[C@](CCl)(CO[P@@](=O)(N[C@@H](C)C(=O)OC(C)C)Oc2ccccc2)[C@@H](O)[C@@H]1F [AL, (S)-Isopropyl 2-(((S)-(((2R,3R,4S,5R)-5-(2-amino-6-(methylamino)-9H-purin-9-yl)-2-(chloromethyl)-4-fluoro-3-hydroxytetrahydrofuran-2-yl)methoxy)(phenoxy)phosphoryl)amino) propanoate]	> 1.6 µM	>1.6
CNc1nc(OC)nc2c1ncn2[C@@H]1O[C@](C)(CO[P@@](=O)(N[C@@H](C)C(=O)OC(C)C)Oc2ccccc2)[C@@H](O)[C@H]1F [AM, (S)-Isopropyl 2-(((S)-(((2R,3R,4R,5R)-5-(6-(methylamino)-2-methoxy-9H-purin-9-yl)-4-fluoro-3-hydroxy-2-methyltetrahydrofuran-2-yl)methoxy)(phenoxy)phosphoryl)amino) propanoate]	1.1 µM	>1.7
CNc1nc(OC)nc2c1ncn2[C@@H]1O[C@](CCl)(CO[P@@](=O)(N[C@@H](C)C(=O)OC(C)C)Oc2ccccc2)[C@@H](O)[C@H]1F [AN, (S)-Isopropyl 2-(((S)-(((2R,3R,4R,5R)-5-(6-(methylamino)-2-methoxy-9H-purin-9-yl)-2-(chloromethyl)-4-fluoro-3-hydroxytetrahydrofuran-2-yl)methoxy)(phenoxy)phosphoryl)amino) propanoate]	> 1.6 µM	>1.6
CNc1nc(F)nc2c1ncn2[C@@H]1O[C@](C)(CO[P@@](=O)(N[C@@H](C)C(=O)OC(C)C)Oc2ccccc2)[C@@H](O)[C@@H]1F [AP, (S)-Isopropyl 2-(((S)-(((2R,3R,4S,5R)-5-(6-(methylamino)-2-fluoro-9H-purin-9-yl)-4-fluoro-3-hydroxy-2-methyltetrahydrofuran-2-yl)methoxy)(phenoxy)phosphoryl)amino) propanoate]	0.034 µM	>1.7
CNc1nc(Cl)nc2c1ncn2[C@@H]1O[C@](C)(CO[P@@](=O)(N[C@@H](C)C(=O)OC(C)C)Oc2ccccc2)[C@@H](O)[C@H]1F [AR, (S)-Isopropyl 2-(((S)-(((2R,3R,4R,5R)-5-(6-(methylamino)-2-chloro-9H-purin-9-yl)-4-fluoro-3-hydroxy-2-methyltetrahydrofuran-2-yl)methoxy)(phenoxy)phosphoryl)amino) propanoate]	1 µM	>1.6
CC(C)OC(=O)[C@H](C)N[P@](=O)(OC[C@@]1(C)O[C@@H](n2cnc3c(N(C)C4CC4)nc(N)nc32)[C@H](F)[C@@H]1O)Oc1ccccc1 [AS, (S)-Isopropyl 2-(((S)-(((2R,3R,4R,5R)-5-(2-amino-6-(cyclopropyl(methyl)amino)-9H-purin-9-yl)-4-fluoro-3-hydroxy-2-methyltetrahydrofuran-2-yl)methoxy)(phenoxy)phosphoryl)amino) propanoate]	1.5 µM	>1.6
CNc1nc(N)nc2c1ncn2[C@@H]1O[C@](CF)(CO[P@@](=O)(N[C@@H](C)C(=O)OC(C)C)Oc2ccccc2)[C@@H](O)[C@@H]1F [AT, (S)-Isopropyl 2-(((S)-(((2R,3R,4S,5R)-5-(2-amino-6-(methylamino)-9H-purin-9-yl)-4-fluoro-2-(fluoromethyl)-3-hydroxytetrahydrofuran-2-yl)methoxy)(phenoxy)phosphoryl)amino) propanoate]	0.18 µM	>1.6
CNc1nc(NC)c2ncn([C@@H]3O[C@](C)(CO[P@@](=O)(N[C@@H](C)C(=O)OC(C)C)Oc4ccccc4)[C@@H](O)[C@H]3F)c2n1 [AU, (S)-Isopropyl 2-(((S)-(((2R,3R,4R,5R)-5-(2,6-bis(methylamino)-9H-purin-9-yl)-4-fluoro-3-hydroxy-2-methyltetrahydrofuran-2-yl)methoxy)(phenoxy)phosphoryl)amino) propanoate]	> 1.7 µM	>1.7
CC(C)OC(=O)[C@H](C)N[P@](=O)(OC[C@@]1(C)O[C@@H](n2cnc3c(NC4CC4)nc(N)nc32)[C@H](F)[C@@H]1O)Oc1ccccc1 [AV, (S)-Isopropyl 2-(((S)-(((2R,3R,4R,5R)-5-(2-amino-6-(cyclopropylamino)-9H-purin-9-yl)-4-fluoro-3-hydroxy-2-methyltetrahydrofuran-2-yl)methoxy)(phenoxy)phosphoryl)amino) propanoate]	0.099 µM	>1.6
CNc1nc(N)nc2c1ncn2[C@@H]1O[C@](C)(CO[P@@](=O)(N[C@@H](C)C(=O)OC(C)C)Oc2ccccc2)[C@@H](O)[C@H]1F [Compound AC]	0.074 µM	>1.4
CC(C)OC(=O)[C@H](C)N[P@](=O)(OC[C@@]1(C)O[C@@H](n2cnc3c(N(C)C)nc(F)nc32)[C@H](F)[C@@H]1O)Oc1ccccc1 [Compound AD, (S)-Isopropyl 2-(((S)-(((2R,3R,4R,5R)-5-(6-(dimethylamino)-2-fluoro-9H-purin-9-yl)-4-fluoro-3-hydroxy-2-methyltetrahydrofuran-2-yl)methoxy)(phenoxy)phosphoryl)amino) propanoate]	8.4 µM	>16
CC(C)OC(=O)[C@H](C)N[P@](=O)(OC[C@@]1(C)O[C@@H](n2cnc3c(N(C)C)nc(Cl)nc32)[C@H](F)[C@@H]1O)Oc1ccccc1 [Compound AE, (S)-Isopropyl 2-(((S)-(((2R,3R,4R,5R)-5-(6-(dimethylamino)-2-chloro-9H-purin-9-yl)-4-fluoro-3-hydroxy-2-methyltetrahydrofuran-2-yl)methoxy)(phenoxy)phosphoryl)amino) propanoate]	9.3 µM	>16
CNc1nc(N)nc2c1ncn2[C@@H]1O[C@@](CO)(CCl)[C@@H](O)[C@H]1F [Compound M, (2R,3R,4R,5R)-5-(2-Amino-6-(methylamino)-9H-purin-9-yl)-2-(chloromethyl)-4-fluoro-2-(hydroxymethyl)tetrahydrofuran-3-ol]	2.9 µM	>288
